From US11795200B2, “Nano small peptide and its use in preparation of drugs for treating and preventing fundus vascular diseases” (FUTU Biotech Co., Ltd., priority 2021, dated 2023)
Read-outs that look alike come from different tables or passages of the source. Non-standard residues stand in square brackets, D forms with d. Residues, ends and D or L forms follow the SMILES beside them. No end group written: not given here. *: point of attachment. Palmitoyl = CCCCCCCCCCCCCCCC(=O)*

Assays:
sSema4D [1] = biological target: T1, sSema4D (Mus musculus, UniProt O09126); experiment: Reduction of sSema4D concentration in endothelial cell culture medium (ELISA); type: cell-based; conditions: for sSema4D concentration: medium with 1600 ng/mL sSema4D, FH 20 μM, BMA-12 2 μg/μL; for sustained reduction of sSema4D concentration: added to endothelial cells, 12 to 48 h
T1 construct: the free Sema4D protein after enzyme cleavage of Sema4D; purchased R&D Systems
T1 sequence (O09126 24-733): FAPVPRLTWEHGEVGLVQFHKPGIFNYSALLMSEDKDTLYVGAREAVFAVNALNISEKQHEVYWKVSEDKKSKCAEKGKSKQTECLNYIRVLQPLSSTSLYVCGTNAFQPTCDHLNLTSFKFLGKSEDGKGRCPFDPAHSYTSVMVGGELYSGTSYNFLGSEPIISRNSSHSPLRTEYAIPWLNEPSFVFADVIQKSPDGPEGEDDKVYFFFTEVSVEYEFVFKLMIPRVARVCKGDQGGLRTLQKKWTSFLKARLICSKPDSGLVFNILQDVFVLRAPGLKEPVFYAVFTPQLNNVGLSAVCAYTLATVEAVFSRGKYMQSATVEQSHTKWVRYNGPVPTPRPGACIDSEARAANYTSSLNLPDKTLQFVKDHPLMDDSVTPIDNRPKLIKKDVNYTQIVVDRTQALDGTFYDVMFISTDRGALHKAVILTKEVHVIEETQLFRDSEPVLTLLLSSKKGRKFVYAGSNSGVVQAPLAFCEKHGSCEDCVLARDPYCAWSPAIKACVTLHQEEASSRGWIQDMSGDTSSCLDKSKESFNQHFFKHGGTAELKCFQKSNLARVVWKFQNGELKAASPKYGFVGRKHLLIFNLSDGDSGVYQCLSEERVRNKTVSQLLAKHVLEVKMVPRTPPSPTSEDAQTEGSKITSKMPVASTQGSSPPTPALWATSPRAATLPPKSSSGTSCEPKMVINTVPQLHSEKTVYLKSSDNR
Procedure: Endothelial cells were uniformly seeded in 6-well cell culture plates and cultured in a 5% CO2 incubator at 37° C. for 24 h. The nano small peptides FH, FG, DMSO, and Sema4D neutralizing antibody (BMA-12) were added to the medium (the concentration of sSema4D in the medium was 1600 ng/mL) to ensure that the final concentration of FH and FG was 20 μM, and the final concentration of the sSema4D neutralizing antibody (BMA-12) was 2 μg/μL, an equal volume of DMSO was then added as a control, and the culture plates were cultured in an incubator for 12, 24, 36, and 48 h, respectively. The cell culture medium was then collected and centrifuged. The supernatant was taken and the expression of Sema4D protein in the supernatant was detected using an ELISA kit (Shanghai Yuanmu Biotechnology Co., Ltd.).

OIR model mice = experiment: Evans blue leakage test, fundus vascular leakage; type: in vivo, mouse; conditions: for vascular leakage of the fundus: 2 nmol injected into the vitreous; for treatment effect on vascular leakage compared with anti-Sema4D: 2 nmol vs 1 μg BMA-12, intravitreal
[2] = system: primary mouse brain microvascular pericytes; experiment: sSema4D-induced pericyte migration (transwell experiment); type: cell-based; conditions: 36 h; for sSema4D-induced pericyte migration: 20 μM, sSema4D 1600 ng/mL
Procedure: The primary mouse brain microvascular pericytes were starved with 0.5% PM for 4 to 6 h. The pericytes were seeded in the upper layer of a 24-well transwell chamber (8 μm). The medium containing FH (20 μM), FG (20 μM), and Sema4D neutralizing antibody (BMA-12) (2 μg/μL) (the concentration of sSema4D in the medium is 1600 ng/mL) was added to the lower chamber, and an equal volume of DMSO was added as control. The cells were incubated in a 5% CO2 incubator at 37° C. for 36 h. 36 h later, the cells on the bottom of the chamber were fixed with 4% paraformaldehyde and stained with crystal violet, and the pericytes that penetrated to the bottom of the chamber were counted under a microscope.

[3] = system: endothelial cells (primary endothelial cells of mouse brain microvessels); experiment: CCK8 cytotoxicity assay; conditions: 20 μM; 12, 14, and 36 h
[4] = In vivo imaging of small animals, entry into vitreous humor; conditions: eye drops (10 μL, 20 μM, three times) and vitreous injection (1 μl, 20 μM)
Procedure: (§1) 10 μL of FH and FG eye drops (with the concentration of 20 μM, the solvent therein was artificial tears) were instilled on the eyeball surface of mice (8-week-old C57 male mice), once at an interval of 1 h. One hour after the third eye drop, the mice were anesthetized to have cardiac perfusion, the eyeballs of the mice were taken out, the connective tissue on the eye surface was trimmed, and the eyeballs were washed with PBS solution for several times to remove the nano eye drops from the surface of the eyeballs. The eyeball was placed in a small animal imager (at emission wavelength of 535 nm and excitation wavelength of 490 nm) for image acquisition.

sSema4D [5] = biological target: T1, sSema4D; experiment: Reduction of sSema4D concentration in a simple medium system (ELISA); type: biochemical; parameters: the free Sema4D protein after enzyme cleavage of Sema4D; purchased R&D Systems; conditions: for sSema4D concentration: medium with 1600 ng/mL sSema4D, FH, FG 20 μM, BMA-12 2 μg/μL
Procedure: The nano small peptides FH, FG, DMSO, and Sema4D neutralizing antibody (BMA-12) were added to the medium (the concentration of sSema4D in the medium was 1600 ng/mL) to ensure that the final concentration of FH and FG was 20 μM, and the final concentration of the Sema4D neutralizing antibody (BMA-12) (BMA-12, i.e., anti-Sema4D) was 2 μg/μL, an equal volume of DMSO was then added as a control, and culture plates were set still at 37° C. for 12, 24, 36, and 48 h, and the culture medium was collected, and the expression of Sema4D protein in the supernatant was detected using an ELISA kit (Shanghai Yuanmu Biotechnology Co., Ltd.).

[6] = mouse, in vivo
Procedure: as §1

| Molecule | sSema4D concentration (sSema4D [1]; 24 h, endothelial cells) | sSema4D concentration (sSema4D [1]; 36 h, endothelial cells) | sustained reduction of sSema4D concentration (sSema4D [1]; 20 μM) | effect on sSema4D concentration, FH compared with FG (sSema4D [1]; endothelial cells, within the same action time, 20 μM) | vascular leakage of the fundus (OIR model mice) | treatment effect on vascular leakage compared with anti-Sema4D (OIR model mice) | inhibition of pericyte migration compared with BMA-12 ([2]; 20 μM vs BMA-12 2 μg/μL) | sSema4D-induced pericyte migration [2] | toxic effects on endothelial cells [3] | entry into the vitreous humor of mice [4] | sSema4D concentration (sSema4D [5]; 24 h) | sSema4D concentration (sSema4D [5]; 36 h) | effect on sSema4D concentration, FH compared with FG (sSema4D [5]; within the same action time, 20 μM) | entry into the vitreous humor of mice [6] |
| --- | --- | --- | --- | --- | --- | --- | --- | --- | --- | --- | --- | --- | --- | --- |
| CCCCCCCCCCCCCCCC(=O)N[C@H](Cc1ccccc1)C(=O)N[C@@H](Cc1ccccc1)C(=O)N[C@H](C(=O)N[C@@H](CC(C)C)C(=O)N[C@@H](CCCCN)C(=O)N[C@@H](CCCCN)C(=O)N[C@@H](CCC(N)=O)C(=O)N[C@@H](CCCCN)C(=O)N[C@@H](CCCNC(=N)N)C(=O)N1CCC[C@H]1C(=O)N[C@@H](CCCNC(=N)N)C(=O)N[C@@H](Cc1c[nH]cn1)C(=O)O)C(C)C [FH] (Palmitoyl-[dF]FVLKKQKRPRH-OH) | can reduce the sSema4D concentration | can still reduce the sSema4D concentration | can sustainably reduce the concentration of sSema4D | better than that of FG | can inhibit vascular leakage of the fundus | comparable to that of anti-Sema4D | more effective in inhibiting pericyte migration than Sema4D neutralizing antibody (BMA-12) | can significantly inhibit the sSema4D-induce pericyte migration | did not cause toxic effects | entered the vitreous humor of mice | can reduce the sSema4D concentration | can still reduce the sSema4D concentration | better than that of FG | – |
| Palmitoyl-FFVLKKNKAAKG [FG] | – | – | can sustainably reduce the concentration of sSema4D | – | can inhibit vascular leakage of the fundus | comparable to that of anti-Sema4D | – | can significantly inhibit the sSema4D-induce pericyte migration | – | – | can reduce the sSema4D concentration | can still reduce the sSema4D concentration | – | entered the vitreous humor of mice |
